Counter-ions that a name gives are not always drawn.
System: Acinetobacter baumannii ATCC17961
Test: Antimicrobial susceptibility testing, 90% growth inhibitory concentration (IC90) determination
Type: cell-based
Conditions: 90% growth inhibitory concentration, Acinetobacter baumannii ATCC17961, Iso-Sensitest broth, OD 600 nm over 16 h; read-out: ATCC17961 IC90
Protocol: The in vitro antimicrobial activity of the compounds was determined according to the following procedure:
The assay used a 10-points Iso-Sensitest broth medium to measure quantitatively the in vitro activity of the compounds against Acinetobacter baumannii ATCC 17978 and Acinetobacter baumannii ATCC17961.
Stock compounds in DMSO were serially twofold diluted (e.g. range from 50 to 0.097 μM final concentration) in 384 wells microtiter plates and inoculated with 49 μl the bacterial suspension in Iso-Sensitest medium to have a final cell concentration of ˜5×10^(5) CFU/ml in a final volume/well of 50 ul/well. Microtiter plates were incubated at 35+2° C.
Bacterial cell growth was determined with the measurement of optical density at X=600 nm each 20 minutes over a time course of 16 h. Growth inhibition was calculated during the logarithmic growth of the bacterial cells with determination of the concentration inhibiting 50% (IC50) and 90% (IC90) of the growth.
Table 1 provides the 90% growth inhibitory concentrations (IC90) in micromoles per liter of the compounds of present invention obtained against the strain Acinetobacter baumannii ATCC17978 and Acinetobacter baumannii ATCC17961.

Row | IC90 [nM] | SMILES
1 | 712 | CCc1cc(Nc2nccn3c(-c4ccc(OC)c(F)c4F)cnc23)ccc1C(=O)N[C@@H]1CCC[C@@H]1N [Example 71, N-((1R,2S)-2-aminocyclopentyl)-4-((3-(2,3-difluoro-4-methoxyphenyl)imidazo[1,2-a]pyrazin-8-yl)amino)-2-ethylbenzamide dihydrochloride]
2 | 260 | CCc1cc(Nc2nccn3c(-c4ccc(OC)c(F)c4F)cnc23)ccc1C(=O)N[C@H]1CC[C@H](N)CC1 [Example 42, trans-N-((1r,4r)-4-aminocyclohexyl)-4-((3-(2,3-difluoro-4-methoxyphenyl)imidazo[1,2-a]pyrazin-8-yl)amino)-2-ethylbenzamide]
3 | 847 | CCc1cc(Nc2nccn3c(-c4ccc(OC)c(F)c4F)cnc23)ccc1C(=O)NC1CCN(C(=O)[C@@H](N)CCCNC(=N)N)CC1 [Example 44, N-(1-(L-arginyl)piperidin-4-yl)-4-((3-(2,3-difluoro-4-methoxyphenyl)imidazo[1,2-a]pyrazin-8-yl)amino)-2-ethylbenzamide bis(2,2,2-trifluoroacetate)]
4 | 211 | CCc1cc(Nc2nccn3c(-c4ccc(OC)c(F)c4F)cnc23)ccc1C(=O)N[C@H]1CC[C@H](N)C1 (racemic) [Example 43, rac-N-((1R,3 R)-3-aminocyclopentyl)-4-((3-(2,3-difluoro-4-methoxyphenyl)imidazo[1,2-a]pyrazin-8-yl)amino)-2-ethylbenzamide]
5 | 749 | CCc1cc(Nc2nccn3c(-c4ccc(OC)c(F)c4F)cnc23)ccc1C(=O)NC1CCCN(C(=O)[C@@H](N)CCCNC(=N)N)C1 (mixture of isomers) [Example 48, rac-N-(1-(D-arginyl)piperidin-3-yl)-4-((3-(2,3-difluoro-4-methoxyphenyl)imidazo[1,2-a]pyrazin-8-yl)amino)-2-ethylbenzamide bis(2,2,2-trifluoroacetate)]
6 | 294 | COc1ccc(-c2cnc3c(Nc4ccc(C(=O)NC5CCCN(C(=O)[C@@H]6C[C@@H](O)CN6)C5)c(C)c4)nccn23)c(F)c1F (mixture of isomers) [Example 59, rac-4-((3-(2,3-difluoro-4-methoxyphenyl)imidazo[1,2-a]pyrazin-8-yl)amino)-N-(1-((2R,4S)-4-hydroxypyrrolidine-2-carbonyl)piperidin-3-yl)-2-methylbenzamide]
7 | 559 | CCc1cc(Nc2nccn3c(-c4ccc(OC)c(F)c4F)cnc23)ccc1C(=O)N[C@H]1CC[C@H](NC(=O)[C@@H](N)CCCNC(=N)N)CC1 [Example 45, N-((1S,4r)-4-((S)-2-amino-5-guanidinopentanamido)cyclohexyl)-4-((3-(2,3-difluoro-4-methoxyphenyl)imidazo[1,2-a]pyrazin-8-yl)amino)-2-ethylbenzamide bis(2,2,2-trifluoroacetate)]
8 | 201 | CCc1cc(Nc2nccn3c(-c4ccc(OC)c(F)c4F)cnc23)ccc1C(=O)N[C@@H]1C[C@@H]1N (racemic) [Example 74, rac-N-((1R,2S)-2-aminocyclopropyl)-4-((3-(2,3-difluoro-4-methoxyphenyl)imidazo[1,2-a]pyrazin-8-yl)amino)-2-ethylbenzamide]
9 | 352 | CCc1cc(Nc2nccn3c(-c4ccc(OC)c(F)c4F)cnc23)ccc1C(=O)N[C@@H]1CCN(C(=O)[C@@H](N)CCCNC(=N)N)C1 [Example 47, N-((R)-1-(L-arginyl)pyrrolidin-3-yl)-4-((3-(2,3-difluoro-4-methoxyphenyl)imidazo[1,2-a]pyrazin-8-yl)amino)-2-ethylbenzamide bis(2,2,2-trifluoroacetate)]
10 | 324 | COc1ccc(-c2cnc3c(Nc4ccc(C(=O)NC5CCCNC5)c(C)c4)nccn23)c(F)c1F (stereo not drawn) [Example 51, 4-((3-(2,3-difluoro-4-methoxyphenyl)imidazo[1,2-a]pyrazin-8-yl)amino)-2-methyl-N-(piperidin-3-yl)benzamide]
11 | 140 | CCc1cc(Nc2nccn3c(-c4ccc(OC)c(F)c4F)cnc23)ccc1C(=O)N[C@@H]1C[C@H]1NC(=O)[C@@H]1C[C@@H](O)CN1 (mixture of isomers) [Example 68, (2S,4R)-N-[(1RS, 2RS)-2-[[4-[[3-(2,3-difluoro-4-methoxy-phenyl)imidazo[1,2-a]pyrazin-8-yl]amino]-2-ethyl-benzoyl]amino]cyclopropyl]-4-hydroxy-pyrrolidine-2-carboxamide]

More lines, now with the values behind:

Row | SMILES | IC90 [nM]
12 | CCc1cc(Nc2nccn3c(-c4ccc(OC)c(F)c4F)cnc23)ccc1C(=O)NC1CCC1NC(=O)[C@@H]1C[C@@H](O)CN1 (mixture of isomers) [Example 69, (2S,4R)-N-(2-(4-((3-(2,3-difluoro-4-methoxyphenyl)imidazo[1,2-a]pyrazin-8-yl)amino)-2-ethylbenzamido)cyclobutyl)-4-hydroxypyrrolidine-2-carboxamide] | 246
13 | COc1ccc(-c2cnc3c(Nc4ccc(C(=O)NC5CCNCC5)c(C)c4)nccn23)c(F)c1F [Example 50, 4-((3-(2,3-difluoro-4-methoxyphenyl)imidazo[1,2-a]pyrazin-8-yl)amino)-2-methyl-N-(piperidin-4-yl)benzamide] | 319
14 | CCc1cc(Nc2nccn3c(-c4ccc(OC)c(F)c4F)cnc23)ccc1C(=O)NC12CC(NC(=O)[C@@H]3C[C@@H](O)CN3)(C1)C2 [Example 70, (2S,4R)-N-(3-(4-((3-(2,3-difluoro-4-methoxyphenyl)imidazo[1,2-a]pyrazin-8-yl)amino)-2-ethylbenzamido)bicyclo[1.1.1]pentan-1-yl)-4-hydroxypyrrolidine-2-carboxamide dihydrochloride] | 197
15 | COc1ccc(-c2cnc3c(Nc4ccc(C(=O)N[C@H]5CC[C@H](NC(=O)[C@@H]6C[C@@H](O)CN6)CC5)c(C)c4)nccn23)c(F)c1F [Example 62, (2S,4R)-N-((1r,4S)-4-(4-((3-(2,3-difluoro-4-methoxyphenyl)imidazo[1,2-a]pyrazin-8-yl)amino)-2-methylbenzamido)cyclohexyI)-4-hydroxypyrrolidine-2-carboxamide] | 268
16 | COc1ccc(-c2cnc3c(Nc4ccc(C(=O)N[C@H]5CC[C@H](N)CC5)c(C)c4)nccn23)c(F)c1F [Example 52, rac-N-((1r,4r)-4-aminocyclohexyl)-4-((3-(2,3-difluoro-4-methoxyphenyl)imidazo[1,2-a]pyrazin-8-yl)amino)-2-methylbenzamide] | 243
17 | CCc1cc(Nc2nccn3c(-c4ccc(OC)c(F)c4F)cnc23)ccc1C(=O)NC1CCCCC1NC(=O)[C@@H]1C[C@@H](O)CN1 (stereo partly drawn) [Example 49, (2S,4R)-N-(2-(4-((3-(2,3-difluoro-4-methoxyphenyl)imidazo[1,2-a]pyrazin-8-yl)amino)-2-ethylbenzamido)cyclohexyl)-4-hydroxypyrrolidine-2-carboxamide dihydrochloride] | 274
18 | COc1ccc(-c2cnc3c(Nc4ccc(C(=O)N[C@H]5CC[C@H](N)C5)c(C)c4)nccn23)c(F)c1F (racemic) [Example 54, rac-N-((1R,3R)-3-aminocyclopentyl)-4-((3-(2,3-difluoro-4-methoxyphenyl)imidazo[1,2-a]pyrazin-8-yl)amino)-2-methylbenzamide] | 238
19 | COc1ccc(-c2cnc3c(Nc4ccc(C(=O)N[C@H]5CCNC5)c(C)c4)nccn23)c(F)c1F [Example 55, (S)-4-((3-(2,3-difluoro-4-methoxyphenyl)imidazo[1,2-a]pyrazin-8-yl)amino)-2-methyl-N (pyrrolidin-3-yl)benzamide] | 236
20 | COc1ccc(-c2cnc3c(Nc4ccc(C(=O)N[C@H]5CC[C@@H](NC(=O)C(C)C)CC5)c(C)c4)nccn23)c(F)c1F [Example 60, rac-4-((3-(2,3-dif!uoro-4-methoxyphenyl)imidazo[1,2-a]pyrazin-8-yl)amino)-N-((1s,4s)-4-isobutyramidocyclohexyl)-2-methylbenzamide] | 189
21 | CCc1cc(Nc2nccn3c(-c4ccc(OC)c(F)c4F)cnc23)ccc1C(=O)NC12CC(N)(C1)C2 [Example 61, N-(3-aminobicyclo[1.1.1]pentan-1-yl)-4-((3-(2,3-difluoro-4-methoxyphenyl)imidazo[1,2-a]pyrazin-8-yl)amino)-2-ethylbenzamide dihydrochloride] | 259
22 | COc1ccc(-c2cnc3c(Nc4ccc(C(=O)NC5CN(C(=O)[C@@H]6C[C@@H](O)CN6)C5)c(C)c4)nccn23)c(F)c1F [Example 65, 4-((3-(2,3-difluoro-4-methoxyphenyl)imidazo[1,2-a]pyrazin-8-yl)amino)-N-(1-((2S,4R)-4-hydroxypyrrolidine-2-carbonyl)azetidin-3-yl)-2-methylbenzamide] | 47
23 | COc1ccc(-c2cnc3c(Nc4ccc(C(=O)N[C@H]5C[C@H](N)C5)c(C)c4)nccn23)c(F)c1F [Example 57, rac-N-((1r,3r)-3-aminocyclobutyl)-4-((3-(2,3-difluoro-4-methoxyphenyl)imidazo[1,2-a]pyrazin-8-yl)amino)-2-methylbenzamide] | 247
24 | COc1ccc(-c2cnc3c(Nc4ccc(C(=O)N[C@H]5C[C@@H](NC(=O)[C@@H]6C[C@@H](O)CN6)C5)c(C)c4)nccn23)c(F)c1F [Example 66, (2S,4R)-N-((1s,3R)-3-(4-((3-(2,3-difluoro-4-methoxyphenyl)imidazo[1,2-a]pyrazin-8-yl)amino)-2-methylbenzamido)cyclobutyl)-4-hydroxypyrrolidine-2-carboxamide] | 40

Source: US20230013602A1, “NOVEL IMIDAZOPYRAZINE DERIVATIVES” (Hoffmann-La Roche Inc., priority 2018, published 2023)
